# Test results published in patent US12691092B2, “Method for reducing cutaneous skin scarring by pre-emptive priming and compounds and compositions for its implementation” (SOS SCIENCE OF SKIN LTD, priority 2020, dated 2026).
# Key:
# Format in all cases: in vivo, human
# MCT and MCC = test: QRT-PCR of MCT and MCC in scar biopsies; conditions: week 4, all groups, p<0.05
# Experimental: A double-blind randomized placebo-controlled trial was conducted using a temporal punch-biopsy model. The punch biopsy and topical application methodology used in the study is illustrated in FIG. 1, namely showing pre-injury pre-emptive priming (7-days), pre-injury pre-emptive priming (3-days), day of injury (immediate application on day 0), post-injury (delayed 2 weeks post injury) including biopsy time points and time of topical applications. Each group applied both placebo and topical formulations twice daily for the duration of the study until week 8, with only the starting time point differing between groups Participants were split into 4 groups (n=10 in each group) in order to compare different modes (timings) of commencement of the topical application: • Group-1: Pre-emptive Priming (7-days): pre-injury • Group-2: Pre-emptive Priming (3-days): pre-injury • Group-3: Immediate (0-day): day-of-injury • Group-4: Delayed (14-days): post-injury Clinical quantitative devices were used to objectively monitor cutaneous healing at weekly intervals and punch biopsies were performed on day 0 (uninjured skin) and at weeks 4 and 8 for protein and gene expression analyses. […] Excisional skin biopsies in upper arms were evaluated weekly with multiple quantitative devices over an 8-week period. […] MCT, MCC and CKit quantitative measurements are expressed in mm^2.
# elastin = test: Immunohistochemical analysis of elastin in scar biopsies
# Experimental: A double-blind randomized placebo-controlled trial was conducted using a temporal punch-biopsy model. The punch biopsy and topical application methodology used in the study is illustrated in FIG. 1, namely showing pre-injury pre-emptive priming (7-days), pre-injury pre-emptive priming (3-days), day of injury (immediate application on day 0), post-injury (delayed 2 weeks post injury) including biopsy time points and time of topical applications. Each group applied both placebo and topical formulations twice daily for the duration of the study until week 8, with only the starting time point differing between groups Participants were split into 4 groups (n=10 in each group) in order to compare different modes (timings) of commencement of the topical application: • Group-1: Pre-emptive Priming (7-days): pre-injury • Group-2: Pre-emptive Priming (3-days): pre-injury • Group-3: Immediate (0-day): day-of-injury • Group-4: Delayed (14-days): post-injury Clinical quantitative devices were used to objectively monitor cutaneous healing at weekly intervals and punch biopsies were performed on day 0 (uninjured skin) and at weeks 4 and 8 for protein and gene expression analyses. In the trial, topical EGCG and a placebo topical were applied twice daily for the duration of the trial until week 8 with only the starting time points differing between groups. Clinical and experimental analysis involved use of non-invasive devices as well as protein and gene studies. Excisional skin biopsies in upper arms were evaluated weekly with multiple quantitative devices over an 8-week period. Immunohistochemical analyses, mRNA sequencing and QRT-PCR were performed on tissue biopsies. […] There was also a significant increase at week-4 in group-1 only by 12% with EGCG (P=0.01). Between group analysis indicated a significant difference at week-8 (p=0.001). The greatest differences were in group-1 compared to groups-3 by 20% (p=0.008) and group-4 by 20% (p=0.003) and in group-2 compared to group-4 by 17% (p=0.009).
# Hemeoxygenase-1 (HO-1) = test: HO-1 immunohistochemical marker (anti-oxidant effect); conditions: week 4, all groups, p<0.01
# Experimental: A double-blind randomized placebo-controlled trial was conducted using a temporal punch-biopsy model. The punch biopsy and topical application methodology used in the study is illustrated in FIG. 1, namely showing pre-injury pre-emptive priming (7-days), pre-injury pre-emptive priming (3-days), day of injury (immediate application on day 0), post-injury (delayed 2 weeks post injury) including biopsy time points and time of topical applications. Each group applied both placebo and topical formulations twice daily for the duration of the study until week 8, with only the starting time point differing between groups Participants were split into 4 groups (n=10 in each group) in order to compare different modes (timings) of commencement of the topical application: • Group-1: Pre-emptive Priming (7-days): pre-injury • Group-2: Pre-emptive Priming (3-days): pre-injury • Group-3: Immediate (0-day): day-of-injury • Group-4: Delayed (14-days): post-injury Clinical quantitative devices were used to objectively monitor cutaneous healing at weekly intervals and punch biopsies were performed on day 0 (uninjured skin) and at weeks 4 and 8 for protein and gene expression analyses. […] Excisional skin biopsies in upper arms were evaluated weekly with multiple quantitative devices over an 8-week period. […]
smiles,measurement,setting,value
"O=C(OC1Cc2c(O)cc(O)cc2OC1c1cc(O)c(O)c(O)c1)c1cc(O)c(O)c(O)c1 (single isomer, unassigned; (-)) [EGCG, (-)-epigallocatechin-3-gallate]","QRT-PCR MCC expression, EGCG-treated samples",MCT and MCC,down-regulation
same,"QRT-PCR MCT expression, EGCG-treated samples",MCT and MCC,down-regulation
same,Elastin levels in primed uninjured skin,elastin; primed uninjured skin prior to injury,increases elastin levels
same,Elastin (immunohistochemical) increase with EGCG,"elastin; week 4, group-1 only, P=0.01",12%
same,"Elastin (immunohistochemical), EGCG-treated samples compared to placebo","elastin; week 8, all groups, p<0.01",up-regulated
same,Elastin: difference of group-2 compared to group-4,"elastin; week 8, 3-day priming vs delayed, p=0.009",17%
same,Elastin: difference of group-1 compared to group-4,"elastin; week 8, 7-day priming vs delayed, p=0.003",20%
same,Elastin: difference of group-1 compared to group-3,"elastin; week 8, 7-day priming vs immediate, p=0.008",20%
same,"HO-1 levels, EGCG-treated samples compared to placebo",Hemeoxygenase-1 (HO-1),significantly higher
